Values of other authors as cited in patent US20130131091A1, “HARMFUL ORGANISM CONTROL AGENT” (priority 2010, published 2013).

Columns and labels:
[1] = tested on: larvae of Helicoverpa zea
[2] = tested on: Plutella xylostella L larvae

Measured: insecticidal activity

CC(=O)OCC1(C)C(OC(C)=O)CCC2(C)C1CC(OC(C)=O)C1(C)Oc3cc(-c4cccnc4)oc(=O)c3C(O)C21 (stereo not drawn) [pyripyropene A]
insecticidal activity: [1] | Tenebrio molitor L | [2]
